The values below come from patent publication US20220226337A1 (Gilead Sciences, Inc., priority 2018, published 2022).

The structures appear in SMILES notation.

The target of this test is T1, α4β7 integrin interaction with MadCAM-1 (RPMI8866 cells) (Homo sapiens, UniProt P13612+P26010).
T1 construct: α4β7 integrin expressing cells; endogenous in cells; host or cells: RPMI8866 cells
T1 sequence (P13612 34-1032): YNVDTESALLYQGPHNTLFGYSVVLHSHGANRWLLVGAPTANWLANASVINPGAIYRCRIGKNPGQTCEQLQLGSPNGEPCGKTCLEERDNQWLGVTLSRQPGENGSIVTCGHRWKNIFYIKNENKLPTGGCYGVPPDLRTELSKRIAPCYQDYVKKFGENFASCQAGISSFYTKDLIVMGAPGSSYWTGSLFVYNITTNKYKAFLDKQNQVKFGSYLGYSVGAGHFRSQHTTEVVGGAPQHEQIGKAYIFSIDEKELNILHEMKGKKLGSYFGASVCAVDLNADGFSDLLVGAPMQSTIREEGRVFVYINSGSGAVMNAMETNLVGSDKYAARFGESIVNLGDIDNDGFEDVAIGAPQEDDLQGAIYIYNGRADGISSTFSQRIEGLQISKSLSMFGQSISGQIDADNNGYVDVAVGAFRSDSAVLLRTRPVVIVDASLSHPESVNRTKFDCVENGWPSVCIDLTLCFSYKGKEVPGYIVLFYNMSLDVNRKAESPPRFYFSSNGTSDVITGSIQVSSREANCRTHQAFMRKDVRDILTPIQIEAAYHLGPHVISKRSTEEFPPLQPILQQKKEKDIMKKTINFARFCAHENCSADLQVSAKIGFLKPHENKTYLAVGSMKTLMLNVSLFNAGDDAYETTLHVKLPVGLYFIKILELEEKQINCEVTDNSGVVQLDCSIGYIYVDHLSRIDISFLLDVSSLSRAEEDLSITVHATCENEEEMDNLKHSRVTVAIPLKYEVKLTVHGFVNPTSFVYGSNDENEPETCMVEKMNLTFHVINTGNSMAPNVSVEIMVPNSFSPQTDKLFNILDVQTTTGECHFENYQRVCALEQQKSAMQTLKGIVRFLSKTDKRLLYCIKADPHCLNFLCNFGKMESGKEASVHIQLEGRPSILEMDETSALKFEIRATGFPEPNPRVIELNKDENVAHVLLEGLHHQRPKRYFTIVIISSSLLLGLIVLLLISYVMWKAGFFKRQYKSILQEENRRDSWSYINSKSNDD
T1 sequence (P26010 20-798): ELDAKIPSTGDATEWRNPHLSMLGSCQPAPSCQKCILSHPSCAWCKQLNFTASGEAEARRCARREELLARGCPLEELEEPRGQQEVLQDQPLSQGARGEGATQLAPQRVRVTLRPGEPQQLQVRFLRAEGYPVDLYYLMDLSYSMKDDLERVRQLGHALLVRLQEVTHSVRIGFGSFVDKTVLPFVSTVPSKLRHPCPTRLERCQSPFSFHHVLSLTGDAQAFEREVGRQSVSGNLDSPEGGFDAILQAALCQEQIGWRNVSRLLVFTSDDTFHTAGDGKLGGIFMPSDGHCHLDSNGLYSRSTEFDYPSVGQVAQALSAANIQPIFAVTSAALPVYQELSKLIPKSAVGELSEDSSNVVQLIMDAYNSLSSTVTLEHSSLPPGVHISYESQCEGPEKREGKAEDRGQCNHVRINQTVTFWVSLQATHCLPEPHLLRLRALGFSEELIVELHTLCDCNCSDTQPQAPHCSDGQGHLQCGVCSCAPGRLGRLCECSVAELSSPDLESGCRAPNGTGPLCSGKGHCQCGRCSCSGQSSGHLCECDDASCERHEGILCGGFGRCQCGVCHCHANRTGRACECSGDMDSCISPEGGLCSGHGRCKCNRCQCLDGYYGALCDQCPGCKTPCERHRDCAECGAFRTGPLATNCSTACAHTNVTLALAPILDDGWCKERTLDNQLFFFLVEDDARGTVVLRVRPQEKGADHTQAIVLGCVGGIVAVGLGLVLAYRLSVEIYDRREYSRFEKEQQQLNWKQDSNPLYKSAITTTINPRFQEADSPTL
Nature of the test: α4β7 Integrin Cell Capture Assay. To be noted: capture of α4β7 integrin expressing RPMI8866 cells on recombinant MadCAM-1 extracellular domain-coated plate; 0.5 mM MnCl2. Type of test: cell-based. Here is the method:
The potency of inhibitors in preventing α4β7 integrin interaction with MadCAM-1 was measured by monitoring the capture of α4β7 integrin expressing cells on a recombinant MadCAM-1 extracellular domain-coated plate. 384-well plates (Corning 3702) were coated with MadCAM-1 extracellular domain by dispensing 20 μL of MAdCAM-1 at 1.0 μg/mL per well and incubating overnight at 4° C. The plates were then washed with PBS and blocked with 3% BSA for 2 hours before being washed again. RPMI8866 cells were spun down and re-suspended in assay medium (DMEM+0.5% FBS+0.5 mM MnCl2) at a density of 0.5×10^6 cells/mL. The cells were then dispensed (60 μL/well) to a 384-well plate (Greiner 781280) that was previously spotted with 60 nL of test compound per well. The plates were incubated at 37° C. for 1 hour. 50 μL of cells were transferred to the blocked, MadCAM-1-coated plates and incubated for 30 minutes at 37° C. 10 μL of 12% glutaraldehyde containing Hoechst 33342 (0.06 mg/mL) was added to the cells (2% glutaraldehyde and 0.01 mg/mL final concentrations). The plates were incubated for 90 minutes at room temperature. The plates were then washed 3 times with 70 μL of PBS per well and imaged on a Cellomics ArrayScan instrument. The cells that were bound to the plate were counted and plotted against the compound concentration to determine the EC50 of the test compounds.
Consider `Cc1nc(C)n(C)c(=O)c1-c1ccc(C[C@H](NC(=O)c2c(F)cc(N3CCOC[C@@H]3C(F)(F)F)cc2F)C(=O)O)c2c1OCCC2` (atropisomer, axis not shown) [Example 117], for which the EC50 worked out at 0.203 nM. Consider `Cc1nc(C)n(C)c(=O)c1-c1ccc(C[C@H](NC(=O)c2c(F)cc(N3CCOC[C@@H]3C(F)(F)F)cc2F)C(=O)O)c2c1OCCC2` (atropisomer, axis not shown) [Example 118], for which the EC50 turned out to be 0.142 nM.

Turning to `Cc1cc(N2CCOC[C@@H]2C(F)(F)F)cc(F)c1C(=O)N[C@@H](Cc1ccc(-c2c(C)nc(C)n(C)c2=O)c2c1CCCO2)C(=O)O` (atropisomer, axis not shown) [Example 119], the concentration giving a half-maximal response (EC50) amounted to 0.089 nM. Turning to `Cc1cc(N2CCOC[C@@H]2C(F)(F)F)cc(F)c1C(=O)N[C@@H](Cc1ccc(-c2c(C)nc(C)n(C)c2=O)c2c1CCCO2)C(=O)O` (atropisomer, axis not shown) [Example 120], the EC50 amounted to 0.089 nM. The value for `Cc1cc(N2CCOC[C@@H]2C(F)(F)F)cc(F)c1C(=O)N[C@@H](Cc1ccc(-c2c(Cl)cc(C)n(C)c2=O)c2c1CCCO2)C(=O)O` (atropisomer, axis not shown) [Example 137] was 0.089 nM; that for `Cc1cc(N2CCC2)c(-c2ccc(C[C@H](NC(=O)c3c(F)cc(N4CCOC[C@@H]4C(F)(F)F)cc3F)C(=O)O)c3c2OCCC3)c(=O)n1C` (atropisomer, axis not shown) [Example 152] was 0.791 nM. For `Cc1cc(N2CCC2)c(-c2ccc(C[C@H](NC(=O)c3c(F)cc(N4CCOC[C@@H]4C(F)(F)F)cc3F)C(=O)O)c3c2OCCC3)c(=O)n1C` (atropisomer, axis not shown) [Example 153] the value was 0.551 nM; for `Cc1c(-c2ccc(C[C@H](NC(=O)c3c(F)cc(N4CCOC[C@@H]4C(F)(F)F)cc3F)C(=O)O)c3c2OCCO3)c(=O)n(C)c(=O)n1C` (single isomer, unassigned) [Example 8], 0.301 nM.

On to `Cc1c(-c2ccc(C[C@H](NC(=O)c3c(F)cc(N4CCOC[C@@H]4C(F)(F)F)cc3F)C(=O)O)c3c2OCCO3)c(=O)n(C)c(=O)n1C` (single isomer, unassigned) [Example 9], for which the EC50 is 0.431 nM.

For the molecule `Cc1c(-c2ccc(C[C@H](NC(=O)c3c(F)cccc3F)C(=O)O)c3c2CCOC3)c(=O)n(C)c2ccc(F)cc12` (single isomer, unassigned) [Example 36], the concentration for a half-maximal effect (EC50) amounted to 24.8 nM.

With `Cc1c(-c2ccc(C[C@H](NC(=O)c3c(F)cccc3F)C(=O)O)c3c2CCOC3)c(=O)n(C)c2ccc(F)cc12` (single isomer, unassigned) [Example 37], the EC50 amounted to 1.6 nM. For `Cc1cc(C(F)(F)F)c(-c2ccc(C[C@H](NC(=O)c3c(F)cc(N4CCOC[C@@H]4C(F)(F)F)cc3F)C(=O)O)c3c2OCCC3)c(=O)n1C` (single isomer, unassigned) [Example 39] the value was 0.126 nM; for `Cc1cc(C(F)(F)F)c(-c2ccc(C[C@H](NC(=O)c3c(F)cc(N4CCOC[C@@H]4C(F)(F)F)cc3F)C(=O)O)c3c2OCCC3)c(=O)n1C` (single isomer, unassigned) [Example 40], 0.889 nM.

Turning to `Cc1cc(C(F)(F)F)c(-c2ccc(C[C@H](NC(=O)c3c(F)cc(N[C@H](C)C(F)(F)F)cc3F)C(=O)O)c3c2OCCC3)c(=O)n1C` (single isomer, unassigned) [Example 41], the concentration for a half-maximal effect (EC50) is 0.594 nM.

As to `Cc1cc(C(F)(F)F)c(-c2ccc(C[C@H](NC(=O)c3c(F)cc(N[C@H](C)C(F)(F)F)cc3F)C(=O)O)c3c2OCCC3)c(=O)n1C` (single isomer, unassigned) [Example 42], the EC50 amounted to 1.42 nM. For `CC[C@@H](Nc1cc(F)c(C(=O)N[C@@H](Cc2ccc(-c3c(C(F)(F)F)cc(C)n(C)c3=O)c3c2CCCO3)C(=O)O)c(F)c1)C(F)(F)F` (single isomer, unassigned) [Example 44] the value was 0.29 nM; for `CC[C@@H](Nc1cc(F)c(C(=O)N[C@@H](Cc2ccc(-c3c(C(F)(F)F)cc(C)n(C)c3=O)c3c2CCCO3)C(=O)O)c(F)c1)C(F)(F)F` (single isomer, unassigned) [Example 45], 0.964 nM; for `CC[C@@H](Nc1cc(F)c(C(=O)N[C@@H](Cc2ccc(-c3c(C)n(C)c(=O)n(C)c3=O)c3c2CCCO3)C(=O)O)c(F)c1)C(F)(F)F` (single isomer, unassigned) [Example 55], 0.152 nM.

In the case of `CC[C@@H](Nc1cc(F)c(C(=O)N[C@@H](Cc2ccc(-c3c(C)n(C)c(=O)n(C)c3=O)c3c2CCCO3)C(=O)O)c(F)c1)C(F)(F)F` (single isomer, unassigned) [Example 56], the EC50 was 0.961 nM. Turning to `Cc1c(-c2ccc(C[C@H](NC(=O)c3c(F)cccc3F)C(=O)O)c3c2OCCC3)c(=O)n(C)c2ccccc12` (single isomer, unassigned) [Example 58], the 50% effective concentration (EC50) worked out at 2.56 nM. As for `Cc1c(-c2ccc(C[C@H](NC(=O)c3c(F)cccc3F)C(=O)O)c3c2OCCC3)c(=O)n(C)c2ccccc12` (single isomer, unassigned) [Example 59], the EC50 is 1.5 nM. The value for `Cc1c(-c2ccc(C[C@H](NC(=O)c3c(Cl)cccc3Cl)C(=O)O)c3c2OCCC3)c(=O)n(C)c2ccccc12` (single isomer, unassigned) [Example 61] was 2.29 nM; that for `Cc1c(-c2ccc(C[C@H](NC(=O)c3c(Cl)cccc3Cl)C(=O)O)c3c2OCCC3)c(=O)n(C)c2ccccc12` (single isomer, unassigned) [Example 62] was 3.3 nM. Turning to `O=C(N[C@@H](Cc1ccc(-c2c(Cl)cc(F)cc2Cl)c2c1[C@H]1C[C@H]1CO2)C(=O)O)c1c(F)cccc1F` (single isomer, unassigned) [Example 78], the EC50 came out at 120 nM. Take `O=C(N[C@@H](Cc1ccc(-c2c(Cl)cc(F)cc2Cl)c2c1[C@@H]1C[C@@H]1CO2)C(=O)O)c1c(F)cccc1F` (single isomer, unassigned) [Example 79]: the concentration giving a half-maximal response (EC50) turned out to be 33.1 nM.

In the case of `O=C(N[C@@H](Cc1ccc(-c2c(Cl)cc(F)cc2Cl)c2c1[C@H]1C[C@H]1CO2)C(=O)O)c1c(Cl)cccc1Cl` (single isomer, unassigned) [Example 81], the EC50 amounted to 109 nM.

On to `O=C(N[C@@H](Cc1ccc(-c2c(Cl)cc(F)cc2Cl)c2c1[C@@H]1C[C@@H]1CO2)C(=O)O)c1c(Cl)cccc1Cl` (single isomer, unassigned) [Example 82], for which the EC50 is 42 nM.
